{
  "source": "patent US11166462B2",
  "about": "“Fungicidal compound, fungicide composition and preparation and use thereof” (Zhejiang Udragon Bioscience Co., Ltd., priority 2016, dated 2021)",
  "key": {"[1]": {"system": "Pseudoperonospora cubensis", "test": "Spore suspension spray inoculation method on pot-cultured cucumber seedlings (cucumber downy mildew)", "type": "in vivo", "conditions": "for EC50: Pseudoperonospora cubensis, against cucumber downy mildew, from regression of control effect at 6.25-100 mg/L; for control effect against cucumber downy mildew (in words): at 200 mg/L concentration; for Control effect (%) Cucumber downy mildew: concentration 200 mg/L; for Control effect (%) Cucumber downy mildew / Control effect (%): 5% EC diluted with water containing 1% Tween 80; for Control effect (%): cucumber downy mildew, investigated after 5 d", "description": "Test Object: Pseudoperonospora cubensis Test design: the compound in a structure expressed by formula (I) (Y14078), the compound in a structure expressed by formula (II) (Y14079), and a reference chemical amisulbrom are prepared with DMF into 5% emulsifiable concentrate (hereafter abbreviated as EC) respectively, and then the EC is diluted with water containing 1% Tween 80 to 5 concentration gradients, i.e., 100, 50, 25, 12.5, and 6.25 mg/L. Each process is repeated for 4 times. Test method: the biological activity of the formulation is measured with a spore suspension spray inoculation method. Pot-cultured cucumber seedlings in the same growth state in the 1-leaf and 1-heart stage (with the growing point removed) are selected, sprayed with the formulation, and dried naturally. After 24 h, spores on the back side of the leaf infected by the disease is picked with a writing brush dipped with distilled water, and are prepared into spore suspension (2-3×10^5 spores/ml), the spore suspension is sprayed uniformly with an inoculating sprayer (at 0.1 MPa pressure) to the leaves of cucumbers, and then the inoculated cucumber seedlings are moved into a climatic chamber (relative humidity: 100%, temperature: 20° C., light-dark cycle time: 14 h/10 h) and cultured. After 24 h, the relative humidity is maintained at about 90% for induction; after 5 d, grading and investigation are carried out on the basis of the disease situation of the blank control group, and the control effect (%) is calculated according to the disease severity index. Investigation Method and Grading Criteria: Level 0: free from disease; Level 1: disease speckle area accounts for 5% or less of the total area of the leaf; Level 3: disease speckle area accounts for 6%-10% of the total area of the leaf; Level 5: disease speckle area accounts for 11%-25% of the total area of the leaf; Level 7: disease speckle area accounts for 26%-50% of the total area of the leaf; Level 9: disease speckle area accounts for 50% or more of the total area of the leaf. Effect Calculation: Disease index=Σ(quantity of leaves at all levels×relative level value)×100/(total quantity of leaves×9); Control effect (%)=(disease index of the control group−disease index of treated group)×100/disease index of control group Test design: the compound in a structure expressed by formula (I) (Y14078) and the compound in a structure expressed by formula (II) (Y14079) are prepared with DMF into 5% emulsifiable concentrate (hereafter abbreviated as EC) respectively, and then the EC is diluted with water containing 1% Tween 80 to prepare 200 mg/L formulation. Each process is repeated for 4 times. Test method for Pseudoperonospora cubensis: the biological activity of the formulation is measured with a spore suspension spray inoculation method. Pot-cultured cucumber seedlings in the same growth state in the 1-leaf and 1-heart stage (with the growing point removed) are selected, sprayed with the formulation, and dried naturally. After 24 h, spores on the back side of the leaf infected by the disease is picked with a writing brush dipped with distilled water, and are prepared into spore suspension (2-3×10^5 spores/[…]), the spore suspension is sprayed uniformly with an inoculating sprayer (at 0.1 MPa pressure) to the leaves of cucumbers, and then the inoculated cucumber seedlings are moved into a climatic chamber (relative humidity: 100%, temperature: 20° C., light-dark cycle time: 14 h/10 h) and cultured. After 24 h, the relative humidity is maintained at about 90% for induction; after 5 d, grading and investigation are carried out on the basis of the disease situation of the blank control group, and the control effect (%) is calculated according to the disease severity index. 2. […]"}, "[2]": {"system": "Rhizoctonia solani", "test": "Fungus cake inoculation on pot-cultured seedlings (rice sheath blight)", "type": "in vivo", "conditions": "for control effect against rice sheath blight (in words): at 200 mg/L concentration; for Control effect (%) Rice sheath blight: concentration 200 mg/L, 5% EC diluted with water containing 1% Tween 80", "description": "Test Object: Pseudoperonospora cubensis, Rhizoctonia Solani Test design: the compound in a structure expressed by formula (I) (Y14078) and the compound in a structure expressed by formula (II) (Y14079) are prepared with DMF into 5% emulsifiable concentrate (hereafter abbreviated as EC) respectively, and then the EC is diluted with water containing 1% Tween 80 to prepare 200 mg/L formulation. Each process is repeated for 4 times. Test method for Rhizoctonia solani: two pot-cultured seedlings in the same growth state in the true leaf stage are selected, sprayed with the formulation and then dried, and fungus cakes are attached to the leaves with the hypha side facing the leave. The seedlings are kept in a dark environment at 22-26° C. moisturizing for 24 h, and then the natural lighting is recovered, and the seedlings are cultured for about 4 days. After the disease is developed extensively in the control group, the diameter of the disease speckle at each inoculated site is measured with callipers, and the control effect is calculated. 2."}},
  "data": [
    {"smiles": "CN(C)S(=O)(=O)n1cnc(S(=O)(=O)Oc2ccc3ccccc3c2Br)n1", "note": "[Compound Y14078]", "values": [
      {"measurement": "EC50", "setting": "[1]", "result": 12.2, "unit": "µg/mL"},
      {"measurement": "control effect against cucumber downy mildew (in words)", "setting": "[1]", "result": "especially remarkable"},
      {"measurement": "Control effect (%) Cucumber downy mildew", "setting": "[1]", "result": 100, "unit": "%"},
      {"measurement": "Control effect (%)", "setting": "[1]; concentration 6.25 mg/L", "result": 35.56, "unit": "%"},
      {"measurement": "Control effect (%)", "setting": "[1]; concentration 12.5 mg/L", "result": 49.97, "unit": "%"},
      {"measurement": "Control effect (%)", "setting": "[1]; concentration 25 mg/L", "result": 67.27, "unit": "%"},
      {"measurement": "Control effect (%)", "setting": "[1]; concentration 50 mg/L", "result": 76.24, "unit": "%"},
      {"measurement": "Control effect (%)", "setting": "[1]; concentration 100 mg/L", "result": 87.58, "unit": "%"},
      {"measurement": "control effect against rice sheath blight (in words)", "setting": "[2]", "result": "good control effect"},
      {"measurement": "Control effect (%) Rice sheath blight", "setting": "[2]", "result": 52.5, "unit": "%"}
    ]},
    {"smiles": "CN(C)S(=O)(=O)n1cnc(S(=O)(=O)Oc2ccc(Oc3ccccc3)cc2)n1", "note": "[Compound Y14079]", "values": [
      {"measurement": "melting point", "result": "141 to 143", "unit": "°C"},
      {"measurement": "EC50", "setting": "[1]", "result": 13.6, "unit": "µg/mL"},
      {"measurement": "control effect against cucumber downy mildew (in words)", "setting": "[1]", "result": "especially remarkable"},
      {"measurement": "Control effect (%) Cucumber downy mildew", "setting": "[1]", "result": 100, "unit": "%"},
      {"measurement": "Control effect (%)", "setting": "[1]; concentration 6.25 mg/L", "result": 31.21, "unit": "%"},
      {"measurement": "Control effect (%)", "setting": "[1]; concentration 12.5 mg/L", "result": 47.79, "unit": "%"},
      {"measurement": "Control effect (%)", "setting": "[1]; concentration 25 mg/L", "result": 59.89, "unit": "%"},
      {"measurement": "Control effect (%)", "setting": "[1]; concentration 50 mg/L", "result": 85.56, "unit": "%"},
      {"measurement": "Control effect (%)", "setting": "[1]; concentration 100 mg/L", "result": 94.63, "unit": "%"},
      {"measurement": "control effect against rice sheath blight (in words)", "setting": "[2]", "result": "good control effect"},
      {"measurement": "Control effect (%) Rice sheath blight", "setting": "[2]", "result": 67.5, "unit": "%"}
    ]}
  ]
}
